Source: patent US20260245700A1, “METHOD FOR GIVING A RECOMMENDATION ON THE DIETARY ENERGY OF A POULTRY DIET” (Evonik Operations GmbH, priority 2023, published 2026)
Read-outs that look alike come from different tables or passages of the source.

Columns and labels:
broilers [1] = conditions: reduced dietary energy content plus GAA added to the feed; cited from earlier work
broilers [2] = conditions: GAA supplemented in broiler diets, compared to non-supplemented diets, asymptotic; cited from earlier work
broilers [3] = assay: Trials in which GAA compensates dietary energy reduction (energy-sparing value); assay type: in vivo
From the text: Reduction of dietary energy content and adding GAA to the feed restored broiler performance, which supports this conclusion (Malins et al., 2017; Mousavi S. N., Afsar A., Lotfollahian H. (2013) Effects of guanidinoacetic acid supplementation to broiler diets with varying energy contents, Journal of Applied Poultry Research, Volume 22, Issue 1, 2013, Pages 47-54, ISSN 1056-6171, https://doi.org/10.3382/japr.2012-00575; Heger, J., J. Zelenka, V. Machander, C. Cruz, M. Lestak, and D. Hampel. (2014) “Effects of Guanidinoacetic Acid Supplementation to Broiler Diets with Varying Energy Content.” Acta Universitatis Agriculturae Silviculturae Mendelianae Brunensis 62: 477-485. doi:10.11118/actaun201462030477; Abudabos, A. M., F. Saleh, A. Lemme, and H. A. H. Zakaria (2014) “The Relationship between Guanidino Acetic Acid and Metabolisable Energy Level of Diets on Performance of Broiler Chickens.” Italian Journal of Animal Science 13: 548-556. doi:10.4081/ijas.2014.3269).
The energy reduction level as well as the GAA supplementation rate was not always the same in trails in which GAA was used to compensate for energy reduction. In most trials dietary energy level of a standard diet was reduced by 50 kcal/kg feed and 0.06% GAA was supplemented to maintain bird performance. This would be equivalent to an energy-sparing value of 83.333 kcal/kg of GAA. However, considering all 20 identified independent trials in which GAA was used to compensate for dietary energy reduction, a wide range of energy-sparing values from 41.667 to 568.333 kcal/kg was tested. […] It can be predicted that an energy-sparing value of 163.889 kcal/kg GAA maintains BWG of the birds, whereas there is still a small improvement for FCR. For FCR, it was found out that even an energy-sparing value of 197.222 kcal/kg GAA maintains performance.

broiler chickens = conditions: cited from earlier work
[4] = Vranes et al. 2017; relatively stable during pelleting or extruding; cited from earlier work
broilers [5] = conditions: EFSA 2009; Tossenberger et al. 2016; cited from earlier work
broilers [6] = conditions: linear regression, relative scale, control = 100%, cited from earlier work

Q: With `N=C(N)NCC(=O)O` [GAA, Guanidinoacetic acid] as the compound, how does the broiler performance (broilers [1]) read?
A: restored

Q: And the “increase of muscle CREA, maximum” value (broilers [2])?
A: ≤ 29%

Q: What about the “energy-sparing value that maintains performance for FCR” value (broilers [3]; from 20 independent trials) of the same compound?
A: 197.222 kcal/kg GAA

Q: And the “energy GAA can compensate (energy-sparing value)” value (broilers [3]; overall, 20 independent trials)?
A: more than 83.333 kcal/kg

Q: What about the “energy-sparing value that maintains BWG” value (broilers [3]; predicted from 20 independent trials, still a small improvement for FCR) of the same compound?
A: 163.889 kcal/kg GAA

Q: And the replacement efficiency (broiler chickens; 1.7 g/kg L-ARG compensated by 1.2 g/kg GAA (Dilger et al. 2013))?
A: 142%

Q: And the “circulatory ARG levels” value (broiler chickens; birds fed ARG-deficient diets (DeGroot et al. 2018))?
A: increased

Q: And the L-ARG compensated (broiler chickens; by 1.2 g/kg GAA (Dilger et al. 2013))?
A: 1.7 g/kg

Q: And the “supplemental L-ARG needed to reach a given feed conversion ratio” value (broiler chickens; very ARG-deficient diet, at 1.2 g/kg supplemental GAA (Dilger et al. 2013))?
A: 2.1 g/kg

Q: And the ARG-sparing effect (broiler chickens; very deficient ARG diets (Dilger et al. 2013))?
A: 143%

Q: And the thermal stability [4]?
A: high

Q: And the bioavailability (broilers [5])?
A: high

Q: What about the FCR improvement (broilers [6]; GAA dose 0.6 g/kg) of the same compound?
A: 4.5 points

Q: And the FCR improvement (broilers [6]; GAA dose 1.2 g/kg)?
A: 8.8 points
